Molecules are shown by their SMILES. Where two headings read alike, the source gives them in different places.

What all share (assay type): physicochemical
The nature of data set [1]: Specific surface area by nitrogen adsorption isotherms (BET). To be noted: for Specific surface area: nitrogen adsorption isotherms, BET. How it is done: Specific surface area of the porous anhydrous crystalline trehalose was measured by the nitrogen adsorption isotherms using “MODEL ASAP-2400”, a specific surface area/pore size distribution analyzer commercialized by Micromeritics, Georgia, USA. […] The result was analyzed by the BET (Brunnauer, Emmet, and Teller) method. The commercial anhydrous crystalline trehalose, a reagent grade, commercialized by Hayashibara Biochemical Laboratories Inc., Okayama, Japan, was used as a control. […] Further, those pore size distribution charts are in FIG. 19. […] The results of the analysis on the specific surface area and the pore size distribution are summarized in Table 7, and the pore size distribution chart was in FIG. 24. As a control, “MALTOSE OM”, a hydrous crystalline maltose product with maltose purity of 98% or higher, produced by Hayashibara Co., Ltd., Okayama, Japan, was used.

The nature of data set [2]: Dissolution test against cold water at 10° C. To be noted: for Time required for dissolution, No. 1 / Time required for dissolution, No. 2 / Time required for dissolution, No. 3 / Time required for dissolution, No. 4 / Time required for dissolution, No. 5 / Time required for dissolution, Average: 20 ml water 10° C., about 300 rpm, 0.5 g trehalose or 0.2 g maltose; for Time required for dissolution, Average: average of 5; for Dissolution in cold water in comparison with controls: cold water 10° C. How it is done: A dissolution test against cold water at 10° C. was carried out using the porous anhydrous crystalline trehalose prepared by treating at 70° C. for 60 min in Example 1, the porous anhydrous crystalline maltose prepared by the method in Example 3, and the porous hydrous crystalline maltose prepared by the method in Example 5, as samples. The results were compared with those of the controls, anhydrous crystalline trehalose, hydrous crystalline trehalose, and hydrous crystalline maltose.
Twenty milliliters of 10° C.-cold water was placed in a test tube with an internal diameter of 18 mm, and then stirred using a stirring bar. A crystalline saccharide sample was put into the test tube, and the time required for the complete dissolution (for the disappearance of precipitate particles) was measured. The amount of samples was set to be 0.5 g in the case of trehalose and to be 0.2 g in the case of maltose, and the stirring rate was set to be about 300 rpm in any case. The measurement of time for dissolution under the above conditions was carried out 5-times at each sample.

Data set [3] in a line: Pore size distribution by the mercury filling method. Conditions: for Median pore diameter: control maltose values are from space between particles, not pores.
Data set [4] can be described thus: Oil-keeping ability with salad oil. To be noted: for Oil-keeping ability: (5 g salad oil / amount of added saccharide) x 100. The arrangement: key to Oil-keeping ability: (5 g salad oil / g saccharide added at endpoint) x 100. How it is done: The oil-keeping ability of each crystalline saccharide was measured using the porous anhydrous crystalline trehalose prepared by treating at 70° C. for 60 min in Example 1, the control hydrous crystalline trehalose, and the control anhydrous crystalline trehalose as crystalline trehalose samples; and the porous anhydrous crystalline maltose prepared by the method in Example 3, the control hydrous crystalline β-maltose, and the control anhydrous crystalline α-maltose, and the control anhydrous crystalline β-maltose as crystalline maltose samples, and the results were compared.
The measurement of the oil-keeping ability of the crystalline saccharide was carried out according to the method disclosed in Japanese Patent Kokai No. 31,650/84. Five grams of “NISSHIN SALAD OIL”, a salad oil commercialized by Nisshin OiliO Group, Ltd., Tokyo, Japan, was placed in a 50-ml plastic container, and then gradually admixed with each powdery crystalline saccharide with stirring. […] When the amount of the mixed saccharide is further increased, the agglomerate increase in solidity and then loosen. The point that the agglomerate is loosened is estimated to be the endpoint and the oil-keeping ability was calculated using the following formula. Oil-Keeping Ability =(The amount of salad oil(5 g)/the amount of added PCS*)×100 *: Powdery crystalline saccharide tm Formula 1

The nature of data set [5]: Crystal moisture content (Karl Fischer) on moisture absorption and drying. On the procedure: Hydrous crystalline saccharides were prepared from the respective porous anhydrous crystalline saccharide using the porous anhydrous crystalline trehalose, obtained by treating at 70° C. for 60 min in Example 1, and the porous anhydrous crystalline maltose, obtained by treating at 70° C. for 480 min in Example 3, as materials. About 50 g of the porous anhydrous crystalline saccharide and about 150 ml of deionized water were placed in respective container. Then, the both open containers were placed in the same closed vessel and leaved to stand at 27° C. for two days. By the treatment, the anhydrous crystalline saccharide was allowed to absorb moisture and converted into hydrous crystal. The resulting hydrous crystal was dried in a drying machine at 50° C. for one hour to remove excess moisture. The moisture contents of the porous anhydrous crystalline trehalose and the porous anhydrous crystalline maltose before and after the treatment to absorb moisture and after drying are in Table 6. The moisture content of crystals was measured by the conventional Karl Fischer's method.

[6] abbreviates: listed as porous anhydrous crystalline maltose.
Setting [7] is: listed as Porous anhydrous crystalline β-maltose (Present invention).
Where [8] appears, read: listed as porous hydrous crystalline maltose.
[9] abbreviates: listed as Porous hydrous crystalline β-maltose (Present invention).

As for `OC[C@H]1O[C@H](O[C@H]2[C@H](O)[C@@H](O)C(O)O[C@@H]2CO)[C@H](O)[C@@H](O)[C@@H]1O` (mixture of isomers) [Anhydrous crystalline α-maltose (Control)] [reference compound], the Specific surface area in data set [1] was found to be 0.48 m^2/g. This compound gave a Specific surface area in data set [1] (listed as anhydrous crystalline α-maltose) of 0.48 m^2/g. For the same compound, in data set [2], the “Time required for dissolution, No. 1” value amounted to 37 s; the “Time required for dissolution, No. 2” value is 35 s; the “Time required for dissolution, No. 3” value stood at 39 s; the “Time required for dissolution, No. 4” value was determined as 38 s. In data set [2], the “Time required for dissolution, No. 5” value was determined as 36 s and the “Time required for dissolution, Average” value stood at 37 s. Besides, in data set [3], the Intrusion volume entry was “(No pore)” and the Median pore diameter was determined as 13.00 μm. In addition, the Oil-keeping ability in data set [4] was 41.7.
Consider `OC[C@H]1O[C@H](O[C@H]2[C@H](O)[C@@H](O)C(O)O[C@@H]2CO)[C@H](O)[C@@H](O)[C@@H]1O` (mixture of isomers) [Anhydrous crystalline β-maltose (Control)] [reference compound], for which the Specific surface area in data set [1] worked out at 0.82 m^2/g. For the same compound, the Specific surface area in data set [1] (listed as anhydrous crystalline β-maltose) is on record as 0.82 m^2/g. Further, in data set [3], the Intrusion volume entry was “(No pore)” and the Median pore diameter is reported as 14.70 μm. Also, in data set [4], the Oil-keeping ability is reported as 40.
Compound `OC[C@H]1O[C@H](O[C@H]2[C@H](O)[C@@H](O)C(O)O[C@@H]2CO)[C@H](O)[C@@H](O)[C@@H]1O` (mixture of isomers) [Hydrous crystalline β-maltose (Control), maltose] had a Specific surface area in data set [1] of 0.46 m^2/g. Besides, the Specific surface area in data set [1] (listed as control hydrous crystalline β-maltose) is recorded as 0.46 m^2/g. For the same compound, the Specific surface area in data set [1] (listed as hydrous crystalline β-maltose) came to 0.46 m^2/g. In data set [2], the “Time required for dissolution, No. 1” value turned out to be 118 s; the “Time required for dissolution, No. 2” value came to 113 s; the “Time required for dissolution, No. 3” value amounted to 114 s; the “Time required for dissolution, No. 4” value was 119 s. Further, in data set [2], the “Time required for dissolution, No. 5” value is 116 s and the “Time required for dissolution, Average” value amounted to 116 s. Moreover, in data set [3], the Intrusion volume entry was “(No pore)” and the Median pore diameter stood at 11.20 μm. This compound also registered an Oil-keeping ability in data set [4] (listed as Hydrous crystalline maltose (Control)) of 45.5.
In turn, `OC[C@H]1O[C@H](O[C@H]2[C@H](O)[C@@H](O)C(O)O[C@@H]2CO)[C@H](O)[C@@H](O)[C@@H]1O` (mixture of isomers) [Porous anhydrous crystalline maltose, maltose] gave a Specific surface area in data set [1] of 3.39 m^2/g. In data set [1] (setting [6]), this compound returned a Specific surface area of 3.39 m^2/g. In data set [2] (setting [7]), the “Time required for dissolution, No. 1” value amounted to 30 s; the “Time required for dissolution, No. 2” value was 31 s; the “Time required for dissolution, No. 3” value was determined as 33 s; the “Time required for dissolution, No. 4” value came out at 29 s. In data set [2] (setting [7]), the “Time required for dissolution, No. 5” value stood at 32 s and the “Time required for dissolution, Average” value came out at 31 s. Further, the “Dissolution in cold water in comparison with controls” value in data set [2] is on record as “rapidly dissolved in cold water”. Moreover, in data set [3], the Intrusion volume is 1.05 mL/g, the “Pore diameter of clear peak in pore size distribution chart” value is recorded as “less than 5 μm” and the Median pore diameter is recorded as 1.26 μm. The same compound showed an Intrusion volume in data set [3] (setting [6]) of 1.05 mL/g. Moreover, the “Crystal moisture content, after drying” value in data set [5] (after moisture absorption and drying at 50° C. for one hour) is given as 5.14 %, w/w. In addition, in data set [5] (before moisture absorption), the “Crystal moisture content, before treatment” value was 0.32 %, w/w. The “Crystal moisture content, after treatment” value in data set [5] (closed vessel with water, 27° C., two days) is 7.35 %, w/w. Moreover, in data set [4] (setting [7]), the Oil-keeping ability worked out at 143. Further, the Oil-keeping ability in data set [4] (listed as porous anhydrous crystalline β-maltose) was determined as 143. In addition, the “Oil-keeping ability relative to control” value in data set [4] (compared with control crystalline saccharide) is given as “about 3 folds”.
As to `OC[C@H]1O[C@H](O[C@H]2[C@H](O)[C@@H](O)C(O)O[C@@H]2CO)[C@H](O)[C@@H](O)[C@@H]1O` (mixture of isomers) [Porous hydrous crystalline maltose, maltose], in data set [1] (compared with control(s)), the “Specific surface area relative to control crystalline saccharide” value is “about 3 folds”. The same compound showed a Specific surface area in data set [1] of 1.39 m^2/g. Besides, in data set [1] (setting [8]), the Specific surface area is listed as 1.39 m^2/g. Besides, in data set [2] (setting [9]), the “Time required for dissolution, No. 1” value was 67 s; the “Time required for dissolution, No. 2” value amounted to 66 s; the “Time required for dissolution, No. 3” value came to 64 s; the “Time required for dissolution, No. 4” value was determined as 68 s. Further, in data set [2] (setting [9]), the “Time required for dissolution, No. 5” value worked out at 65 s and the “Time required for dissolution, Average” value worked out at 66 s. Also, in data set [2], the “Dissolution in cold water in comparison with controls” value is reported as “rapidly dissolved in cold water”. In data set [3], the Intrusion volume stood at 0.77 mL/g, the “Pore diameter of clear peak in pore size distribution chart” value is “less than 5 μm” and the Median pore diameter is listed as 2.82 μm. The compound also came in with an Intrusion volume in data set [3] (setting [8]) of 0.77 mL/g.
`OC[C@H]1O[C@H](O[C@H]2O[C@H](CO)[C@@H](O)[C@H](O)[C@H]2O)[C@H](O)[C@@H](O)[C@@H]1O` [Porous anhydrous crystalline trehalose (treated at 50° C. fo] [α-D-glucosyl α-D-glucoside] registered a Specific surface area in data set [1] of 3.306 m^2/g. Further, in data set [3], the Intrusion volume turned out to be 0.22 mL/g, the Mode pore diameter came to 0.29 μm, the “Remarks (pores)” value is recorded as “Having clear pores” and the Median pore diameter is reported as 0.21 μm.
